This passage reports IC50 results from patent US20210189342A1, “COMPOSITIONS AND METHODS FOR MODULATING MONOCYTE AND MACROPHAGE INFLAMMATORY PHENOTYPES AND IMMUNOTHERAPY USES THEREOF” (Verseau Therapeutics, Inc., priority 2018, published 2021).

A value given as a limit tells only on which side of the number the result lay.

The first data set concerns VSIG4. Description: siRNA dose response, VSIG4 mRNA knockdown, Dual-Glo Luciferase Assay. It counts as cell-based, human. The settings on record: Hepa1-6 + reporter plasmid, 24 hr. The procedure:
(§1) Dose response curves for siRNAs were generated in vitro using a variety of cell lines according to Table 4.
(§2) Briefly, cells were seeded in 96-well plates and reverse transfected with siRNA, Lipofectamine® 2000 (0.5 uL/well; ThermoFisher), and, in some cases, a reporter plasmid (50 ng/well). The reporter plasmid (psiCHECK™-2, Promega) encoded both firefly luciferase and the gene of interest fused to renilla luciferase; silencing of the gene of interest results in proportional silencing of renilla luciferase but leaves firefly luciferase unaffected as an internal control.
(§3) After 24 hr incubation at 37° C., mRNA knockdown was measured using an endpoint assay. For targets without a reporter plasmid, a branched DNA (bDNA) assay was performed according to the manufacturer's instructions (QuantiGene® Singleplex Gene Expression Assay, ThermoFisher) to measure both the target gene and GAPDH (housekeeping gene) mRNA. Data are plotted as siRNA concentration (nM) vs. remaining mRNA (ratio of target gene to GAPDH, normalized to mock siRNA-transfected cells). For targets with a reporter plasmid, a Dual-Glo® Luciferase Assay was performed according to the manufacturer's instructions (Promega) to measure firefly and renilla luciferase expression. Data are plotted as siRNA concentration (nM) vs. remaining mRNA (ratio of renilla to firefly luminescence, normalized to mock siRNA-transfected cells).
(§4) For all dose response curves, a 4-parameter logistic model was applied to determine the IC50 of each siRNA sequence (Table 5 and FIG. 2). Data shown in Table 5 and FIG. 2 represent the mean of quadruplicates, +/−standard deviation.
What is called IC50 is the concentration that gives 50% inhibition. “XD-09177: siRNA targeting VSIG4 (sense 5'-acuAGGAcuuGGucAucAudTsdT-3'; antisense 5'-AUGAUGACcAAGUCCuAGUdTsdT-3'; RNA with 2'-O-methyl and phosphorothioate modifications, case key not given here, as printed in the source, key not given here)”: the half-maximal inhibitory concentration (IC50) amounted to 0.007 nM.
Turning to “XD-09178: siRNA targeting VSIG4 (sense 5'-gucAucAuGccuAcAGAcAdTsdT-3'; antisense 5'-UGUCUGuAGGcAUGAUGACdTsdT-3'; RNA with 2'-O-methyl and phosphorothioate modifications, case key not given here, as printed in the source, key not given here)”, the concentration for half-maximal inhibition (IC50) came to 0.06 nM.
Regarding “XD-09179: siRNA targeting VSIG4 (sense 5'-ggccAGAcAGcuuuuAAuudTsdT-3'; antisense 5'-AAUuAAAAGCUGUCUGGCCdTsdT-3'; RNA with 2'-O-methyl and phosphorothioate modifications, case key not given here, as printed in the source, key not given here)”, the IC50 came to 0.006 nM.

A further data set relates to CD37. The experiment in a line: siRNA dose response, CD37 mRNA knockdown, bDNA Assay. It counts as cell-based, human. The following applies: THP-1, 24 hr. As to the method:
as §1, §2, §3, §4
Consider “XD-09770: siRNA targeting CD37 (sense 5'-gcuuGcGGGAcGucGuAGAdTsdT-3'; antisense 5'-UCuACGACGUCCCGcAAGCdTsdT-3'; RNA with 2'-O-methyl and phosphorothioate modifications, case key not given here, as printed in the source, key not given here)”, for which it took 0.553 nM to reach half-maximal inhibition (IC50).
“XD-09771: siRNA targeting CD37 (sense 5'-gacGucGuAGAGAaAAccAdTsdT-3'; antisense 5'-UGGUUUUCUCuACGACGUCdTsdT-3'; RNA with 2'-O-methyl and phosphorothioate modifications, case key not given here, as printed in the source, key not given here)” came in with an IC50 of 0.388 nM.
With “XD-09773: siRNA targeting CD37 (sense 5'-cgAccAAcGAcuccAcAAudTsdT-3'; antisense 5'-AUUGUGGAGUCGUUGGUCGdTsdT-3'; RNA with 2'-O-methyl and phosphorothioate modifications, case key not given here, as printed in the source, key not given here)”, the half-maximal inhibitory concentration (IC50) came to 0.311 nM.
Turning to “XD-09774: siRNA targeting CD37 (sense 5'-ccAAcGAcuccAcaAuccudTsdT-3'; antisense 5'-AGGAUUGUGGAGUCGUUGGdTsdT-3'; RNA with 2'-O-methyl and phosphorothioate modifications, case key not given here, as printed in the source, key not given here)”, it took 0.129 nM to reach half-maximal inhibition (IC50).
Same read-out and setting: the figure for “XD-09775: siRNA targeting CD37 (sense 5'-ccAcAAuccuAGAuAAGGudTsdT-3'; antisense 5'-ACCUuAUCuAGGAUUGUGGdTsdT-3'; RNA with 2'-O-methyl and phosphorothioate modifications, case key not given here, as printed in the source, key not given here)” is 1.6 nM; for “XD-09776: siRNA targeting CD37 (sense 5'-ggcuGcAcAAcAAccuuAudTsdT-3'; antisense 5'-AuAAGGUUGUUGUGcAGCCdTsdT-3'; RNA with 2'-O-methyl and phosphorothioate modifications, case key not given here, as printed in the source, key not given here)” it is 1.32 nM.
“XD-09777: siRNA targeting CD37 (sense 5'-guucAuGAcGcucucGAuAdTsdT-3'; antisense 5'-uAUCGAGAGCGUcAUGAACdTsdT-3'; RNA with 2'-O-methyl and phosphorothioate modifications, case key not given here, as printed in the source, key not given here)” returned an IC50 of 0.414 nM.
The substance “XD-09778: siRNA targeting CD37 (sense 5'-cgGcucGcucGAuaccGuudTsdT-3'; antisense 5'-AACGGuAUCGAGCGAGCCGdTsdT-3'; RNA with 2'-O-methyl and phosphorothioate modifications, case key not given here, as printed in the source, key not given here)” had an IC50 of 11.4 nM.
Turning to “XD-09779: siRNA targeting CD37 (sense 5'-accAcccAcAAGAuuAuuudTsdT-3'; antisense 5'-AAAuAAUCUUGUGGGUGGUdTsdT-3'; RNA with 2'-O-methyl and phosphorothioate modifications, case key not given here, as printed in the source, key not given here)”, the IC50 was less than 0.005 nM.

In the next data set the test system is EVI2B. The experiment in a line: siRNA dose response, EVI2B mRNA knockdown, bDNA Assay. Format: cell-based, human. The settings on record: A172, 24 hr. The procedure:
as §1, §2, §3, §4
Take “XD-10481: siRNA targeting EVI2B (sense 5'-cuuuGGGucAAccaAcAcAdTsdT-3'; antisense 5'-UGUGUUGGUUGACCcAAAGdTsdT-3'; RNA with 2'-O-methyl and phosphorothioate modifications, case key not given here, as printed in the source, key not given here)”: half-maximal inhibition (IC50) required 0.169 nM.
“XD-10482: siRNA targeting EVI2B (sense 5'-caAccAAcAccAAuAGccAdTsdT-3'; antisense 5'-UGGCuAUUGGUGUUGGUUGdTsdT-3'; RNA with 2'-O-methyl and phosphorothioate modifications, case key not given here, as printed in the source, key not given here)” yielded an IC50 of 0.017 nM.
The substance “XD-10483: siRNA targeting EVI2B (sense 5'-ccAucuGcccGuAcuucuAdTsdT-3'; antisense 5'-uAGAAGuACGGGcAGAUGGdTsdT-3'; RNA with 2'-O-methyl and phosphorothioate modifications, case key not given here, as printed in the source, key not given here)” came in with an IC50 of 3.27 nM.
With “XD-10484: siRNA targeting EVI2B (sense 5'-ccAccAAAGucAuuuGucudTsdT-3'; antisense 5'-AGAcAAAUGACUUUGGUGGdTsdT-3'; RNA with 2'-O-methyl and phosphorothioate modifications, case key not given here, as printed in the source, key not given here)”, the midpoint of inhibition, the IC50, lay at 0.014 nM.

A further data set relates to AIF1. The experiment in a line: siRNA dose response, AIF1 mRNA knockdown, bDNA Assay. Format: cell-based, human. The following applies: THP-1, 24 hr. As to the method: as §1, §2, §3, §4
For “XD-09661: siRNA targeting AIF1 (sense 5'-uaAuGGAAAuGGcgAuAuudTsdT-3'; antisense 5'-AAuAUCGCcAUUUCcAUuAdTsdT-3'; as printed in the source, key not given here)”, it took 0.045 nM to reach half-maximal inhibition (IC50).
For the substance “XD-09662: siRNA targeting AIF1 (sense 5'-uaucAuGucccuGaAAcGAdTsdT-3'; antisense 5'-UCGUUUcAGGGAcAUGAuAdTsdT-3'; as printed in the source, key not given here)”, the 50% inhibitory concentration (IC50) amounted to 0.12 nM.
On to “XD-09663: siRNA targeting AIF1 (sense 5'-gaAAcGAAuGcuGgAGAAAdTsdT-3'; antisense 5'-UUUCUCcAGcAUUCGUUUCdTsdT-3'; as printed in the source, key not given here)”, for which the IC50 came out at 0.263 nM.
In turn, “XD-09664: siRNA targeting AIF1 (sense 5'-agAcucAccuAGAgcuAAAdTsdT-3'; antisense 5'-UUuAGCUCuAGGUGAGUCUdTsdT-3'; as printed in the source, key not given here)” yielded an IC50 of 0.433 nM.
“XD-09665: siRNA targeting AIF1 (sense 5'-cucAccuAGAGcuaAAGAAdTsdT-3'; antisense 5'-UUCUUuAGCUCuAGGUGAGdTsdT-3'; as printed in the source, key not given here)” yielded an IC50 of 0.349 nM.
As to “XD-09666: siRNA targeting AIF1 (sense 5'-ucAccuAGAGcuAaAGAAAdTsdT-3'; antisense 5'-UUUCUUuAGCUCuAGGUGAdTsdT-3'; as printed in the source, key not given here)”, the IC50 was 0.105 nM.
For “XD-09667: siRNA targeting AIF1 (sense 5'-accuAGAGcuAAAgAAAuudTsdT-3'; antisense 5'-AAUUUCUUuAGCUCuAGGUdTsdT-3'; as printed in the source, key not given here)”, inhibition was half-maximal at 0.042 nM (IC50).
“XD-09668: siRNA targeting AIF1 (sense 5'-ccuAGAGcuAAAGaAAuuAdTsdT-3'; antisense 5'-uAAUUUCUUuAGCUCuAGGdTsdT-3'; as printed in the source, key not given here)” had an IC50 of 0.267 nM.
Regarding “XD-09669: siRNA targeting AIF1 (sense 5'-ccGGGGAGAcGuucAGcuAdTsdT-3'; antisense 5'-uAGCUGAACGUCUCCCCGGdTsdT-3'; as printed in the source, key not given here)”, the IC50 was found to be 1.23 nM.
